# Data from patent publication US20100285959A1, “HERBICIDAL MIXTURES” (priority 2006, published 2010).
# How the values were obtained:
# giant ragweed (AMBTR) = assay: Test 2 field trial, preemergence; assay type: in vivo, Ambrosia trifida; parameters: scale not given here
# From the text: Corn seeds (hybrid ‘Pioneer 31G96’) were planted in mid spring season, 3.8 cm deep in a clay loam soil having 2% organic matter and a pH of 6.6. Plots were 6.1 m long by 3.0 m wide with rows spaced 76 cm apart. Seeds were spaced 15 cm apart within the rows. The field was managed using conventional tillage practices. […] A few of the weed species could not be evaluated at every timing. […] Results are the means of the three replicates.
# wild radish (RAPRA) = assay: Test 7 field trial, preemergence; assay type: in vivo, Raphanus raphanistrum
# Description: Plots were 7.6 m long by 3.0 m wide with rows spaced 76 cm apart. Seeds were spaced 15 cm apart within the rows. The field was managed using conventional tillage practices. […] Wild radish was evaluated 14 and 28 days after application. […] Results are the means of the three replicates.
# Canada horseweed (ERICA) = assay: Test 9 field trial, emerged weeds before corn planting; assay type: in vivo, Erigeron canadensis; conditions: g a.i./ha: Cpd 2 100, Glyphosate 1540, Paraquat 1150
# Description: Corn seeds (hybrid ‘Pioneer 34M91 RR’) were planted in mid spring season, about 3.8 cm deep in a silty clay loam soil having a pH of 6.7. Plots were 9.1 m long by 3.0 m. The field was managed using no-till practices. […] Compound 2 and paraquat treatments, alone and in combination, also included a surfactant. Glyphosate, alone and with Compound 2, included ammonium sulfate in the treatment mixture. […] The effects on the weeds in the treated plots and untreated control plots were recorded 7, 14, 23, 30 and 57 days after application. Most of the weed species could not be evaluated at every timing. Corn response was only evaluated 57 days after application. […] Results are the means of the three replicates.
# [1] = system: broadleaf buttonweed (BOILF); assay: Test 12 field trial, preemergence; assay type: in vivo, Borreria latifolia; parameters: scale not given here; conditions: Cpd 2 or Cpd 1 62 g a.i./ha, Diuron 2000 g a.i./ha
# From the text: In early-mid spring season, corn seeds (hybrid ‘Pioneer 3041’) were planted 5 cm deep and sugarcane nodes (variety RB-72.454) were planted 10 cm deep in separate plots in a clay soil having 2.6% organic matter and a pH of 5.6. Plots were 24 m long by 1.5 m wide with rows spaced 80 cm (corn) or 140 cm (sugarcane) apart. Corn seeds were spaced 15 cm apart and sugarcane nodes were spaced 10 cm apart within the rows. At the same time, weed seeds were broadcast over the surface of separate plots without a crop, one weed species per plot. The weed plots were rotary tilled to incorporate the weed seeds to a variety of depths. The field was managed using conventional tillage practices.
# redroot pigweed (AMARE) [2] = assay: Test 21 growth chamber, postemergence; assay type: in vivo, Amaranthus retroflexus; conditions: 19 DAA; Cpd 2 alone 16 g a.i./ha
# Description: (§1) A test was conducted to evaluate the effects on winter barley (HORVW, Hordeum vulgare L.), winter wheat (TRZAW, Triticum aestivum L.), and several weed species, of mixtures of Compound 2 with the commercial herbicide (2,4-dichlorophenoxy)acetic acid (2,4-D), an auxin mimic. […] Plants were treated postemergence at the 2-4 leaf growth stage, and each treatment was replicated one time. […] Plants were watered as needed. […] Results are from single replicates.
# redroot pigweed (AMARE) [3] = assay: Test 22 growth chamber, postemergence; assay type: in vivo, Amaranthus retroflexus; conditions: 25 DAA
# Description: as §1, with “species” for “species,”, “herbicides” for “herbicide”, “(2,4-D) and (4-chloro-2-methylphenoxy)acetic acid (MCPA),” for “(2,4-D), an”, “mimics.” for “mimic.”, “stage, except KCHSC, SASKR” for “stage,”, “STEME which were in the 4-8 leaf growth stage. Each” for “each”
# wild buckwheat (POLCO) = assay: Test 22 growth chamber, postemergence; assay type: in vivo, Polygonum convolvulus; conditions: 25 DAA
# Description: as §1, with “species” for “species,”, “herbicides” for “herbicide”, “(2,4-D) and (4-chloro-2-methylphenoxy)acetic acid (MCPA),” for “(2,4-D), an”, “mimics.” for “mimic.”, “stage, except KCHSC, SASKR” for “stage,”, “STEME which were in the 4-8 leaf growth stage. Each” for “each”
# Russian thistle (SASKR) [4] = assay: Test 22 growth chamber, postemergence; assay type: in vivo, Salsola kali; conditions: 25 DAA
# Description: as §1, with “species” for “species,”, “herbicides” for “herbicide”, “(2,4-D) and (4-chloro-2-methylphenoxy)acetic acid (MCPA),” for “(2,4-D), an”, “mimics.” for “mimic.”, “stage, except KCHSC, SASKR” for “stage,”, “STEME which were in the 4-8 leaf growth stage. Each” for “each”
# common chickweed (STEME) = assay: Test 22 growth chamber, postemergence; assay type: in vivo, Stellaria media; conditions: 25 DAA
# Description: as §1, with “species” for “species,”, “herbicides” for “herbicide”, “(2,4-D) and (4-chloro-2-methylphenoxy)acetic acid (MCPA),” for “(2,4-D), an”, “mimics.” for “mimic.”, “stage, except KCHSC, SASKR” for “stage,”, “STEME which were in the 4-8 leaf growth stage. Each” for “each”
# winter wheat (TRZAW) = assay: Test 23 growth chamber, postemergence; assay type: in vivo, Triticum aestivum; conditions: 21 DAA
# Description: as §1, with “species” for “species,”, “herbicides” for “herbicide”, “(2,4-D) and (4-chloro-2-methylphenoxy)acetic acid (MCPA),” for “(2,4-D), an”, “mimics.” for “mimic.”, “three times.” for “one time.”, “means of the three” for “from single”
# redroot pigweed (AMARE) [5] = assay: Test 23 growth chamber, postemergence; assay type: in vivo, Amaranthus retroflexus; conditions: 21 DAA
# Description: as §1, with “species” for “species,”, “herbicides” for “herbicide”, “(2,4-D) and (4-chloro-2-methylphenoxy)acetic acid (MCPA),” for “(2,4-D), an”, “mimics.” for “mimic.”, “three times.” for “one time.”, “means of the three” for “from single”
# [6] = system: common lambsquarters (CHEAL); assay: Test 23 growth chamber, postemergence; assay type: in vivo, Chenopodium album; conditions: 21 DAA
# Description: as §1, with “species” for “species,”, “herbicides” for “herbicide”, “(2,4-D) and (4-chloro-2-methylphenoxy)acetic acid (MCPA),” for “(2,4-D), an”, “mimics.” for “mimic.”, “three times.” for “one time.”, “means of the three” for “from single”
# kochia (KCHSC) = assay: Test 23 growth chamber, postemergence; assay type: in vivo, Kochia scoparia; conditions: 21 DAA
# Description: as §1, with “species” for “species,”, “herbicides” for “herbicide”, “(2,4-D) and (4-chloro-2-methylphenoxy)acetic acid (MCPA),” for “(2,4-D), an”, “mimics.” for “mimic.”, “three times.” for “one time.”, “means of the three” for “from single”
# field poppy (PAPRH) = assay: Test 23 growth chamber, postemergence; assay type: in vivo, Papaver rhoeas; conditions: 21 DAA
# Description: as §1, with “species” for “species,”, “herbicides” for “herbicide”, “(2,4-D) and (4-chloro-2-methylphenoxy)acetic acid (MCPA),” for “(2,4-D), an”, “mimics.” for “mimic.”, “three times.” for “one time.”, “means of the three” for “from single”
# Russian thistle (SASKR) [7] = assay: Test 23 growth chamber, postemergence; assay type: in vivo, Salsola kali; conditions: 21 DAA
# Description: as §1, with “species” for “species,”, “herbicides” for “herbicide”, “(2,4-D) and (4-chloro-2-methylphenoxy)acetic acid (MCPA),” for “(2,4-D), an”, “mimics.” for “mimic.”, “three times.” for “one time.”, “means of the three” for “from single”
compound,measurement,setting,value
"COC(=O)c1nc(C2CC2)nc(N)c1Cl [Compound 2, methyl 6-amino-5-chloro-2-cyclopropyl-4-pyrimidinecarboxylate]",AMBTR Obs,"giant ragweed (AMBTR); 18 DAA, g a.i./ha: Cpd 2 25, Atrazine 250",10
same,AMBTR Obs,"giant ragweed (AMBTR); 18 DAA, g a.i./ha: Cpd 2 50, Atrazine 500",30
same,AMBTR Obs,"giant ragweed (AMBTR); 18 DAA, g a.i./ha: Cpd 2 75, Atrazine 750",10
same,AMBTR Obs,"giant ragweed (AMBTR); 18 DAA, g a.i./ha: Cpd 2 100, Atrazine 1000",45
same,AMBTR Obs,"giant ragweed (AMBTR); 18 DAA, g a.i./ha: Cpd 2 150, Atrazine 1500",65
same,AMBTR Obs,"giant ragweed (AMBTR); 28 DAA, g a.i./ha: Cpd 2 25, Atrazine 250",35
same,AMBTR Obs,"giant ragweed (AMBTR); 28 DAA, g a.i./ha: Cpd 2 50, Atrazine 500",30
same,AMBTR Obs,"giant ragweed (AMBTR); 28 DAA, g a.i./ha: Cpd 2 75, Atrazine 750",75
same,AMBTR Obs,"giant ragweed (AMBTR); 28 DAA, g a.i./ha: Cpd 2 100, Atrazine 1000",70
same,RAPRA Obs,"wild radish (RAPRA); 14 DAA, 125 g a.i./ha",35%
same,RAPRA Obs,"wild radish (RAPRA); 14 DAA, 250 g a.i./ha",53%
same,RAPRA Obs,"wild radish (RAPRA); 14 DAA, 500 g a.i./ha",73%
same,RAPRA Obs,"wild radish (RAPRA); 28 DAA, 250 g a.i./ha",38%
same,RAPRA Obs,"wild radish (RAPRA); 28 DAA, 500 g a.i./ha",58%
same,ERICA Obs,Canada horseweed (ERICA); 7 DAA,62%
same,ERICA Obs,Canada horseweed (ERICA); 14 DAA,68%
same,ERICA Obs,Canada horseweed (ERICA); 23 DAA,75%
same,ERICA Obs,Canada horseweed (ERICA); 30 DAA,83%
same,ERICA Obs,Canada horseweed (ERICA); 57 DAA,100%
same,BOILF Obs,[1]; 15 DAA,70
same,BOILF Obs,[1]; 29 DAA,60
same,BOILF Obs,[1]; 48 DAA,95
same,BOILF Obs,[1]; 61 DAA,100
same,Postemergence AMARE Obs,redroot pigweed (AMARE) [2],60
same,Postemergence AMARE Obs,redroot pigweed (AMARE) [3]; Cpd 2 alone 4 g a.i./ha,55
same,Postemergence AMARE Obs,redroot pigweed (AMARE) [3]; Cpd 2 alone 8 g a.i./ha,65
same,Postemergence AMARE Obs,redroot pigweed (AMARE) [3]; Cpd 2 alone 16 g a.i./ha,65
same,Postemergence POLCO Obs,wild buckwheat (POLCO); Cpd 2 alone 4 g a.i./ha,55
same,Postemergence POLCO Obs,wild buckwheat (POLCO); Cpd 2 alone 8 g a.i./ha,60
same,Postemergence POLCO Obs,wild buckwheat (POLCO); Cpd 2 alone 16 g a.i./ha,60
same,Postemergence SASKR Obs,Russian thistle (SASKR) [4]; Cpd 2 alone 4 g a.i./ha,50
same,Postemergence SASKR Obs,Russian thistle (SASKR) [4]; Cpd 2 alone 8 g a.i./ha,50
same,Postemergence SASKR Obs,Russian thistle (SASKR) [4]; Cpd 2 alone 16 g a.i./ha,55
same,Postemergence STEME Obs,common chickweed (STEME); Cpd 2 alone 4 g a.i./ha,50
same,Postemergence STEME Obs,common chickweed (STEME); Cpd 2 alone 8 g a.i./ha,50
same,Postemergence STEME Obs,common chickweed (STEME); Cpd 2 alone 16 g a.i./ha,55
same,Postemergence TRZAW Obs,winter wheat (TRZAW); Cpd 2 alone 4 g a.i./ha,35
same,Postemergence TRZAW Obs,winter wheat (TRZAW); Cpd 2 alone 8 g a.i./ha,38
same,Postemergence TRZAW Obs,winter wheat (TRZAW); Cpd 2 alone 16 g a.i./ha,43
same,Postemergence AMARE Obs,redroot pigweed (AMARE) [5]; Cpd 2 alone 4 g a.i./ha,43
same,Postemergence AMARE Obs,redroot pigweed (AMARE) [5]; Cpd 2 alone 8 g a.i./ha,62
same,Postemergence AMARE Obs,redroot pigweed (AMARE) [5]; Cpd 2 alone 16 g a.i./ha,68
same,Postemergence CHEAL Obs,[6]; Cpd 2 alone 4 g a.i./ha,53
same,Postemergence CHEAL Obs,[6]; Cpd 2 alone 8 g a.i./ha,55
same,Postemergence CHEAL Obs,[6]; Cpd 2 alone 16 g a.i./ha,55
same,Postemergence KCHSC Obs,kochia (KCHSC); Cpd 2 alone 4 g a.i./ha,53
same,Postemergence KCHSC Obs,kochia (KCHSC); Cpd 2 alone 8 g a.i./ha,60
same,Postemergence KCHSC Obs,kochia (KCHSC); Cpd 2 alone 16 g a.i./ha,70
same,Postemergence PAPRH Obs,field poppy (PAPRH); Cpd 2 alone 4 g a.i./ha,53
same,Postemergence PAPRH Obs,field poppy (PAPRH); Cpd 2 alone 8 g a.i./ha,58
same,Postemergence PAPRH Obs,field poppy (PAPRH); Cpd 2 alone 16 g a.i./ha,72
same,Postemergence SASKR Obs,Russian thistle (SASKR) [7]; Cpd 2 alone 4 g a.i./ha,55
same,Postemergence SASKR Obs,Russian thistle (SASKR) [7]; Cpd 2 alone 8 g a.i./ha,63
same,Postemergence SASKR Obs,Russian thistle (SASKR) [7]; Cpd 2 alone 16 g a.i./ha,72
O=C(O)CNCP(=O)(O)O [Glyphosate],ERICA Obs,Canada horseweed (ERICA); 7 DAA,45%
same,ERICA Obs,Canada horseweed (ERICA); 14 DAA,76%
same,ERICA Obs,Canada horseweed (ERICA); 23 DAA,98%
same,ERICA Obs,Canada horseweed (ERICA); 30 DAA,100%
same,ERICA Obs,Canada horseweed (ERICA); 57 DAA,84%
"CCc1cccc(C)c1N(C(=O)CCl)[C@@H](C)COC [S-Metolachlor, S-metolachlor, reference compound]",RAPRA Obs,"wild radish (RAPRA); 14 DAA, 1000 g a.i./ha",40%
same,RAPRA Obs,"wild radish (RAPRA); 28 DAA, 1000 g a.i./ha",15%
